Patent US10203320B2, “Label free method for assessing chemical cardiotoxicity” (Corning Incorporated, priority 2012, dated 2019)

Assays:
[1] = test system: cultured human iPS-derived cardiomyocytes; test: Label-free beat pattern (resonant light intensity imaging) of cultured cardiomyocytes on RWG biosensor; conditions: Cardiomyocyte, 0.25 h, read-out: IC50, dose-dependent decrease/block of beating (beat rate and amplitude) of cultured cardiomyocytes
Experimental: Coating of EPIC® resonant waveguide grating (RWG) biosensors. EPIC® 384 well cell culture compatible plates were obtained from Corning, Inc. (Corning, N.Y.). The gelatin-coated EPIC® plates were obtained by incubating the plates with 10 microliter of 20 microgram/mL of freshly prepared gelatin solution in phosphate buffer saline and dried overnight under vacuum. Alternatively or additionally, for example, in experiments with IPS derived cardiomyocytes, the gelatin-coated EPIC® plates were obtained by incubating overnight, uncoated plates with 40 microliters of 0.1% gelatin (Type A) in a solution made with distilled water and autoclaved for 30 minutes to sterilize. The incubated plates were then washed with 40 microliters of sterile water three times immediately before seeding with cardiomyocyte cells.

[2] = test system: cultured human iPS-derived cardiomyocytes; test: Dynamic mass redistribution (DMR) assay of cultured cardiomyocytes on RWG biosensor; format: cell-based; conditions: 160 nM
Experimental: Coating of EPIC® resonant waveguide grating (RWG) biosensors. […] VN is the abbreviation of a vitronectin peptide ([…]). First, a functionalized cell adhesive peptide-copolymer was prepared. […] The mobile phase was trifluoroethanol and potassium trifluoroacetate. […] Standards were prepared using the VN peptide in PBS. Absorbance was read on a BIOTEK® Synergy 4.
First Mode The resonant waveguide grating biosensor is illuminated at a normal incidence angle by a collimated LED (light emitting diode) beam, which passes through a tunable optical filter with a pass band width of 1 nm. The illuminated sensor area was imaged to a high speed CMOS (complementary metal-oxide-semiconductor) camera. Spectral images were acquired synchronously when the tunable filter sweeps through a wavelength range which covers the resonances of the biosensors. The image stack contains sensor spectra in all the pixels, where resonance wavelengths are extracted in a 2D image. Normally in each acquisition, the wavelength sweep is from 825 nm to 840 nm, or 820 nm to 835 nm for a duration of 3 seconds, and 150 frames of images were acquired during the wavelength scan. For typical long-term DMR assays, the update rate was from 15 seconds to minutes, with multiple scans averaged into a single data point. […]

COc1cc(N)c(Cl)cc1C(=O)NC1CCN(CCCOc2ccc(F)cc2)CC1OC (stereo not shown) [cisapride, cisapride monohydrate]
IC50 [1]: ~160 nM

CC(C)NC[C@H](O)c1ccc(O)c(O)c1 [isoprotenerol, (−)-Isoproterenol]
DMR signal of cultured cardiomyocytes in response to stimulation ([2]; compared to negative control (assay vehicle), 37° C., FIG. 3): more sustained DMR signal
oscillation pattern of the DMR signal after stimulation ([2]; compared to the baseline and the DMR induced by the assay buffer): became smaller but with higher frequency

COC(=O)C1=C(C)NC(C)=C(C(=O)OC(C)C)C1c1cccc2nonc12 (stereo not shown) [isradipine]
IC50 [1]: ~100 nM
